Patent publication US20070259856A1, “Method for Activating Trpv4 Channel Receptors by Agonists” (priority 2004, published 2007)
Values joined by “and” are separate entries in the source; they are usually repeats but may differ in a detail not shown here. Identical values can stand only once. Like-named read-outs stand apart in the source and are kept apart here.

How the values were obtained:
[1] = tested on: human cartilage explants; experiment: Aggrecan degradation (GAG, DMMB) in human cartilage explants; assay type: cell-based; conditions: Homo sapiens; estimated; 3-point concentration response
Method: Because the progression of aggrecan degradation in response to IL-1 in human cartilage is slower than in bovine cartilage, culture media was removed and replaced with fresh treatments every 2-3 days for approximately 3 weeks. For each timepoint, GAG levels were measured by DMMB assay, and cumulative data released over the entire 3 week culture period was calculated.
The data represents cumulative aggrecan degradation after 21 days in culture. […] In addition, Formula IId caused a concentration-dependent reduction of IL-1-induced aggrecan degradation. […] The estimated IC50's shown in Table 7 are very similar to those IC50's calculated from IL-1-stimulated bovine cartilage.

[2] = target: T1, TRPV4 channel receptor (Homo sapiens, UniProt Q9HBA0); experiment: Ca2+ influx in human articular chondrocytes (FlexStation); conditions: for HAC % eff: human articular chondrocytes
T1 sequence (Q9HBA0 whole entry): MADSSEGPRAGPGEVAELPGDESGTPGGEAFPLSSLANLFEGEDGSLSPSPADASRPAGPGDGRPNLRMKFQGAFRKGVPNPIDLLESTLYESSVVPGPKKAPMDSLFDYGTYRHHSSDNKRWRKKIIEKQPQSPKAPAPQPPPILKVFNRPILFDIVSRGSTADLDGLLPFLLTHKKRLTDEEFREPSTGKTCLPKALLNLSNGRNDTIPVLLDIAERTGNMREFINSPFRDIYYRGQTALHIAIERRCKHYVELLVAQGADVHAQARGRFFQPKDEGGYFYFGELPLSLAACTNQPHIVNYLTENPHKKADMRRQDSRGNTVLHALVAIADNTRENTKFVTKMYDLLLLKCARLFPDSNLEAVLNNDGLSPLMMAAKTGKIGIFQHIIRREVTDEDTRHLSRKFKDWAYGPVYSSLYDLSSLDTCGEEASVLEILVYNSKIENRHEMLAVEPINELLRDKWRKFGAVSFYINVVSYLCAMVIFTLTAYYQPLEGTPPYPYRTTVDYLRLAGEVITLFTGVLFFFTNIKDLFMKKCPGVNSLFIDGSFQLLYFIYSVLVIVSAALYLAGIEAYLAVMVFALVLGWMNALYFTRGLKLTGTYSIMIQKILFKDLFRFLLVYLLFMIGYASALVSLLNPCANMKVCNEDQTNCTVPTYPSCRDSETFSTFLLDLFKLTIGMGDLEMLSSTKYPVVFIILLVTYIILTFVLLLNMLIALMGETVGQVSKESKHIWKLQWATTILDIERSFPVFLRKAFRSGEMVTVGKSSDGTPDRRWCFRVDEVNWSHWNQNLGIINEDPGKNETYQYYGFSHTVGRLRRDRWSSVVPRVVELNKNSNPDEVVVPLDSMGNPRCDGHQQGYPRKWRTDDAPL

[3] = tested on: aggrecanase; experiment: IL-1 induced aggrecanase production, chondrocyte-based aggrecanase peptide cleavage assay; assay type: cell-based, bovine
Text: Aggrecanases (ADAMTSs), in conjunction with MMPs, degrade aggrecan, one of the major matrix components in articular cartilage. […] 2003; 48(1): 119-133].

[4] = target: T2, TRPV4 channel receptor (Bos taurus, UniProt A0A8F4X677); experiment: Ca2+ influx in bovine articular chondrocytes (FlexStation); assay type: cell-based
T2 construct: endogenous in cells; host or cells: bovine articular chondrocytes
T2 sequence (A0A8F4X677 1-871): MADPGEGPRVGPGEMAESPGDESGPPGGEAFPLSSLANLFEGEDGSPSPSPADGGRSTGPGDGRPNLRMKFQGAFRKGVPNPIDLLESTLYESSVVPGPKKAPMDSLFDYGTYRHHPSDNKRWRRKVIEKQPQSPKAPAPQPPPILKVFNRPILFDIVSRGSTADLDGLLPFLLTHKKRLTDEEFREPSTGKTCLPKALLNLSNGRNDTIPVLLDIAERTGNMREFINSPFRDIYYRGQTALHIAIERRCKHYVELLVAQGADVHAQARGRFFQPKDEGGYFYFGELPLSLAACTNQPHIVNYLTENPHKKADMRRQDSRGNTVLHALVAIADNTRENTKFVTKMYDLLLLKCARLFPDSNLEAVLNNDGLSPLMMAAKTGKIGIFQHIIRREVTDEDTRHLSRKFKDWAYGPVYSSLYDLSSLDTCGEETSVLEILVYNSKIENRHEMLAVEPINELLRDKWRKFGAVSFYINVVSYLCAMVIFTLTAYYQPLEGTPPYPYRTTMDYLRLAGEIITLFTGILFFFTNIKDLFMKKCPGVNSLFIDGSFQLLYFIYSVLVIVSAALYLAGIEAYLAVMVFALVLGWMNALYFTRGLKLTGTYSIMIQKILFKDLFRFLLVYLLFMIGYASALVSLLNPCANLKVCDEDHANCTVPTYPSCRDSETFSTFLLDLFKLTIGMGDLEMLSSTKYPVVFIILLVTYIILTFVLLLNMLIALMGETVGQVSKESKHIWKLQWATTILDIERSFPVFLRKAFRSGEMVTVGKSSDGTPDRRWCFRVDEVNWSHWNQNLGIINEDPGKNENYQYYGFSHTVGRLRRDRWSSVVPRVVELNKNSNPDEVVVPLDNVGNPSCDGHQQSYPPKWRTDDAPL

[5] = target: TRPV4 channel receptor (Rattus norvegicus, UniProt Q9ERZ8); experiment: Ca2+ influx in rat articular chondrocytes (FlexStation); conditions: for EC50: RAC EC50, rat articular chondrocytes; for EC50 / RAC % eff: N = 2; for RAC % eff: rat articular chondrocytes
Sequence of TRPV4 channel receptor (Rattus norvegicus, UniProt Q9ERZ8) (Q9ERZ8 whole entry): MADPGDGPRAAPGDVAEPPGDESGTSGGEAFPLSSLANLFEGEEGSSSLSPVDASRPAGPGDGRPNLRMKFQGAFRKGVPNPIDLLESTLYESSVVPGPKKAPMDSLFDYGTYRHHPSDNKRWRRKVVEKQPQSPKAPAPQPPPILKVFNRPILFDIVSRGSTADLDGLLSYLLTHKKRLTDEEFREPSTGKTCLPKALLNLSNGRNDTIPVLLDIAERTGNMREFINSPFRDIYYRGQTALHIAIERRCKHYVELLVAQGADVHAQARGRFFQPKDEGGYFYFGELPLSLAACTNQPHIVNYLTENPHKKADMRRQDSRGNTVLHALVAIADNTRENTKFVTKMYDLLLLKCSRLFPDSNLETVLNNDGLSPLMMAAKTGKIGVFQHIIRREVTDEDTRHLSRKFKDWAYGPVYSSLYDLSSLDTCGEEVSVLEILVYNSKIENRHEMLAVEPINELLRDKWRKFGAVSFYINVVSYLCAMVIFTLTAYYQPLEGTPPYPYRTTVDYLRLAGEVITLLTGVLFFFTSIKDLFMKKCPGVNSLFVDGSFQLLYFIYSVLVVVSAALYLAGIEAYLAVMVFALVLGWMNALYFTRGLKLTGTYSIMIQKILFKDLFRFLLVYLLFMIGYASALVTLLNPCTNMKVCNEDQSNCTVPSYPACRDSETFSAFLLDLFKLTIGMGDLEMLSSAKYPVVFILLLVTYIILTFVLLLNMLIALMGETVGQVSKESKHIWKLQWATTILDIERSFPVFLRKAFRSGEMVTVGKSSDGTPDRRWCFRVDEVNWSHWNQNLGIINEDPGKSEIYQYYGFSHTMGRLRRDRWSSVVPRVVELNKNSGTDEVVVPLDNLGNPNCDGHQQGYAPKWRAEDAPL

[6] = tested on: bovine articular cartilage explants; experiment: IL-1 induced aggrecan degradation (GAG release, DMMB) in bovine articular cartilage explants; assay type: cell-based; conditions: for IC50: IL-1-stimulated bovine cartilage
Text: Articular cartilage explants isolated from newborn calves at slaughter were placed in culture, and aggrecan degradation was initiated through stimulation with IL-1. Since aggrecan degradation in this model is believed to be mediated by aggrecanase, TRPV4 channel receptor agonists that are active in the chondrocyte-based aggrecanase peptide assay (Example 11) may also be effective inhibitors in the cartilage explant assay, presumably by blocking aggrecanase production in these tissues.
At the end of the culture period, conditioned media were assayed for glycosaminoglycan (GAG) levels by colorimetric (DMMB) assay as a measure of aggrecan degradation. In bovine explants, IL-1 induced a profound increase in the amount of GAG released into the media during the 3 day culture. When cartilage was treated with IL-1 in combination with Formula IIc, there was a concentration-dependent reduction in GAG release as shown in Table 5.

[7] = target: T1, TRPV4 channel receptor; experiment: FLIPR assay; assay type: cell-based
[8] = tested on: bovine articular cartilage explants; experiment: IL-1 induced collagen degradation (hydroxyproline) in bovine articular cartilage explants; assay type: cell-based
Method: IL-1 stimulates collagen degradation in bovine articular cartilage explants after extended (−2-3 weeks) exposure to IL-1. Collagen breakdown was evaluated by measuring the levels of hydroxyproline, a major component of hydrolyzed collagen fibrils, using a colorimetric assay that is understood in the art. Bovine articular cartilage was stimulated with IL-1 for 18 days, in the absence or presence of Formula Ib or Formula IId (both at 1 uM). Media was removed and replaced every 2-4 days with fresh IL-1 and compound through day 18. As has been shown previously, aggrecan degradation precedes collagen breakdown in IL-1-stimulated bovine cartilage explants. Once aggrecan depletion had been achieved by day 10, media were analyzed for collagen breakdown using the hydroxyproline assay.

[9] = tested on: cells transfected with empty vector; experiment: Intracellular calcium (FLIPR) in HEK293 cells transfected with empty vector; assay type: cell-based; parameters: key to pEC50 empty vector: IA = inactive; conditions: for pEC50 empty vector: intracellular calcium, mean ± s.e.mean, n = 3-5
Method: (§1) TRPV4 channel receptor cDNA was inserted into the expression vector pcDNA3.1 V5-His (Invitrogen, Carlsbad, Calif.). Wildtype HEK293 cells, or HEK293 cells transfected with the human TRPV4 channel receptor: pcDNA3.1 V5-His construct, or mock transfected cells, or bovine chondrocytes, were seeded into 96-well microtitre plates at 25,000 cells/well and cultured overnight. The cells were then incubated with 4 μM Fluo-3 (Fluo-3: Molecular Probes (Eugene, Oreg.)) for 2 hours at room temperature in the dark. Dye loaded cells were washed 4× with Tyrodes buffer: (NaCl, 145 mM; KCl, 2.5 mM; Hepes, 10 mM; Glucose, 10 mM; MgCl2, 1.2 mM; CaCl2, 1.5 mM), which also contained 0.2% BSA but not probenecid. Agonists and antagonists were also prepared in Tyrodes buffer. Cells were preincubated for 30 minutes with antagonist or buffer. Agonist addition and measurement of cytoplasmic calcium concentration was performed in the FLIPR (Smart, et al., (2000) Br. J. Pharmacol. 129, 227-230).

[10] = tested on: wild type HEK293 cells; experiment: Intracellular calcium (FLIPR) in wild type HEK293 cells; assay type: cell-based; parameters: key to pEC50 wild type: IA = inactive; conditions: for pEC50 wild type: intracellular calcium, mean ± s.e.mean, n = 3-5
Method: as §1

[11] = target: TRPVR1 (Homo sapiens, UniProt Q8NER1); assay type: cell-based; parameters: key to pEC50 TRPVR1: IA = inactive; conditions: for pEC50 TRPVR1: intracellular calcium, mean ± s.e.mean, n = 3-5
Sequence of TRPVR1 (Q8NER1 whole entry): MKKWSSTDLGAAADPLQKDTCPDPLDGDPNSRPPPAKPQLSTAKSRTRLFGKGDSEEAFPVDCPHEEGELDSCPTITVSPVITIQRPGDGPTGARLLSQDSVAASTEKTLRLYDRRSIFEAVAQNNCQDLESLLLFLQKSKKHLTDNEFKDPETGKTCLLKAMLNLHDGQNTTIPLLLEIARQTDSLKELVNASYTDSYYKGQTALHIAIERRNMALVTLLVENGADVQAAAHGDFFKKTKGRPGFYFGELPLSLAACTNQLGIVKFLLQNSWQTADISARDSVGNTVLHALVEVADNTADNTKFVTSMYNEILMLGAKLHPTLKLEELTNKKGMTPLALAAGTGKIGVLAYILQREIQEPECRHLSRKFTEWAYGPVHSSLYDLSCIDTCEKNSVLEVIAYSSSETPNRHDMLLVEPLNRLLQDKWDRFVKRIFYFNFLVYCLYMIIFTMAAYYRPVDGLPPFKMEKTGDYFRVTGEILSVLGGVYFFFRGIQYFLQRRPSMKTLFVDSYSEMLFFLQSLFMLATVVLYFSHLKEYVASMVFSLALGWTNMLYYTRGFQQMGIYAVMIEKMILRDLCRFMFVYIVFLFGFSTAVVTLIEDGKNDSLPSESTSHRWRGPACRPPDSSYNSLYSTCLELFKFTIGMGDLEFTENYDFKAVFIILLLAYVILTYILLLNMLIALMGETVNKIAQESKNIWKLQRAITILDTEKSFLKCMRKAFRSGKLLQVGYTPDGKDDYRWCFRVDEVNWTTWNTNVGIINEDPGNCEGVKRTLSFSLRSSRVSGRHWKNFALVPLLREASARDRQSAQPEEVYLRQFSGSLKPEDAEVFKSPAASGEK

[12] = target: T1, TRPV4 channel receptor; experiment: Intracellular calcium (FLIPR, Fluo-3) in HEK293 cells transfected with human TRPV4 channel receptor; assay type: cell-based; parameters: V5-His (from the vector's name only); expressed in transfected cells; host or cells: HEK293; key to pEC50 TRPVR4: IA = inactive; conditions: for pEC50 TRPVR4: intracellular calcium, mean ± s.e.mean, n = 3-5
Method: as §1

[13] = tested on: TRPV4 channel receptors; experiment: Activation of TRPV4 channel receptors in cartilage explants; assay type: cell-based, human, rat, rabbit, mouse, canine, monkey, or bovine; conditions: compared with chondrocytes extracted from a cartilage matrix
[14] = target: T3, TRPV4 channel receptor endogenously expressed by chondrocytes (Bos taurus, UniProt A0A8F4X677); experiment: Intracellular calcium (FLIPR) in bovine articular chondrocytes; assay type: cell-based
T3 construct: endogenous in cells; host or cells: bovine articular chondrocytes
T3 sequence (A0A8F4X677 1-871): as the sequence (A0A8F4X677 1-871) above
Method: as §1
The response was dependent upon extracellular calcium ions and was blocked by the channel blocker, ruthenium red.

[15] = Ca Influx - FLEX (human) EC50, human chondrocytes
[16] = HAC EC50, human articular chondrocytes, N = 2
[17] = bovine articular chondrocytes, read-out: BAC EC50
[18] = bovine chondrocytes, read-out: Ca Influx - FLEX (bovine) EC50

CC(C)C[C@H](NC(=O)c1cc2ccccc2s1)C(=O)NCCCN(C)S(=O)(=O)c1ccccc1C#N [Formula IIIb, N-{(1S)-1-[({3-[[(cyanophenyl)sulfonyl](methyl)amino]propyl}amino)carbonyl]-3-methylbutyl}-1-benzothiophene-2-carboxamide]
IC50 [1]: 500 nM
EC50 [2, 15]: 280 nM
EC50 [2, 16]: 240 nM and 210 nM
HAC % eff ([2]; N = 2): 124% and 130%
Ca Influx - FLEX (human) % effic. ([2]; human chondrocytes): 78%
IC50 [3]: 350 nM
IC50 ([3]; Bos taurus): 400 nM
BAC % eff ([4]; bovine articular chondrocytes): (104%)
EC50 [4, 17]: 260 nM
Ca Influx - FLEX (bovine) % effic. ([4]; bovine chondrocytes): 70%
EC50 [4, 18]: 290 nM
EC50 [5]: 370 nM and 700 nM
RAC % eff [5]: 99% and 104%
IC50 ([6]; Bos taurus): 400 nM
EC50 [7]: 700 nM

CC(C)C[C@H](NC(=O)c1cc2ccccc2n1C)C(=O)N[C@@H]1CCCN(S(=O)(=O)c2ccccc2C#N)CC1 [Formula Ib, N-{(1S)-1-[({(4R)-1-[(2-cyanophenyl)sulfonyl]hexahydro-1H-azepin-4-yl}amino)carbonyl]-3-methylbutyl}-methyl-1H-indole-2-carboxamide]
IC50 [1]: 300 nM
EC50 [2, 15]: 260 nM
Ca Influx - FLEX (human) % effic. ([2]; human chondrocytes): 133%
IC50 ([3]; Bos taurus): 600 nM
Ca Influx - FLEX (bovine) % effic. ([4]; bovine chondrocytes): 119%
EC50 [4, 18]: 280 nM
Hydroxyproline Mean ± SEM ([8]; 1 uM, IL-1 50 ng/ml, media from day 14-18): 6 ± 2 µg
inhibition at 1 µM ([8]; Bos taurus, 336 h, 1 uM, IL-1 50 ng/ml, media from day 14-18): 95%
IC50 ([6]; Bos taurus): 200 nM

CCCCCCCCCC(=O)O[C@@H]1[C@@H](C)[C@@]2(O)[C@@H](C=C(CO)C[C@@]3(O)C(=O)C(C)=C[C@@H]23)[C@@H]2C(C)(C)[C@]12OC(=O)CCCCCCCCC [Formula 4αPDD, 4α-phorbol-12,13-didecanoate]
Ca2+ influx ([2]; human chondrocytes): stimulated Ca^2+ influx
effect on intracellular calcium in cells transfected with empty vector [9]: without effect
pEC50 empty vector [9]: IA
effect on intracellular calcium in wild type HEK293 cells [10]: without effect
pEC50 wild type [10]: IA
Ca2+ influx ([4]; bovine chondrocytes): stimulated Ca^2+ influx
Ca2+ influx ([5]; rat chondrocytes): stimulated Ca^2+ influx
activation of VR1 [11]: did not activate VR1
pEC50 TRPVR1 [11]: IA
intracellular calcium in HEK293-TRPV4 channel receptor cells [12]: increased intracellular calcium
pEC50 TRPVR4 [12]: 5.73 ± 0.06
potency and efficacy in activating TRPV4 channel receptors in cartilage explants [13]: greatly diminished

COc1ccc(S(=O)(=O)N(Cc2cccnc2)[C@@H](C(=O)NO)C(C)C)cc1 [CGS-27023A, reference compound]
block of IL-1-induced collagen degradation [8]: completely blocked

CC(C)C[C@H](NC(=O)c1cc2ccccc2s1)C(=O)N[C@@H]1CCCN(S(=O)(=O)c2ccc(Cl)cc2)CC1=O [Formula IIc, N-{(1S)-1-[({(4R)-1-[(4-chlorophenyl)sulfonyl]-3-oxohexahydro-1H-azepin-4-yl}amino)carbonyl]-3-methylbutyl}-1-benzothiophene-2-carboxamide]
GAG release Mean ± SEM ([6]; 0.01 μM, IL-1 100 ng/ml, 3 days): 62 ± 4.82 μg/explant
GAG release Mean ± SEM ([6]; 0.03 μM, IL-1 100 ng/ml, 3 days): 59 ± 4.62 μg/explant
GAG release Mean ± SEM ([6]; 0.10 μM, IL-1 100 ng/ml, 3 days): 43 ± 3.18 μg/explant
GAG release Mean ± SEM ([6]; 1.00 μM, IL-1 100 ng/ml, 3 days): 14 ± 1.44 μg/explant
inhibition at 0.01 µM ([6]; Bos taurus, 72 h, 0.01 μM, IL-1 100 ng/ml, 3 days): -2%
inhibition at 0.03 µM ([6]; Bos taurus, 72 h, 0.03 μM, IL-1 100 ng/ml, 3 days): 4%
inhibition at 0.1 µM ([6]; Bos taurus, 72 h, 0.10 μM, IL-1 100 ng/ml, 3 days): 38%
inhibition at 1 µM ([6]; Bos taurus, 72 h, 1.00 μM, IL-1 100 ng/ml, 3 days): 98%
inhibition of aggrecan degradation ([6]; IL-1 stimulation for 12 or 21 days): Significant inhibition

CCCCCCCCCCCCCC(=O)O[C@@H]1[C@@H](C)[C@@]2(O)[C@@H](C=C(CO)C[C@]3(O)C(=O)C(C)=C[C@@H]23)[C@@H]2C(C)(C)[C@]12OC(C)=O [PMA, phorbol 12-myristate 13-acetate]
Ca2+ influx ([2]; human chondrocytes): no change in Ca^2+ influx
effect on intracellular calcium in cells transfected with empty vector [9]: without effect
pEC50 empty vector [9]: IA
effect on intracellular calcium in wild type HEK293 cells [10]: without effect
pEC50 wild type [10]: IA
Ca2+ influx ([4]; bovine chondrocytes): no change in Ca^2+ influx
Ca2+ influx ([5]; rat chondrocytes): no change in Ca^2+ influx
activation of VR1 [11]: activated VR1
Emax at VR1 ([11]; compared to capsaicin and RTX): 0.46
pEC50 TRPVR1 [11]: 7.86 ± 0.06
intracellular calcium in HEK293-TRPV4 channel receptor cells [12]: increased intracellular calcium
pEC50 TRPVR4 [12]: 6.64 ± 0.06

CC(C)C[C@H](NC(=O)c1cc2ccccc2s1)C(=O)NCCCN(C)S(=O)(=O)c1ccc(Cl)cc1Cl [Formula IIIc, N-{(1S)-1-[({3-[[(2,4-dichlorophenyl)sulfonyl](methyl)amino]propyl}amino)carbonyl]-3-methylbutyl}-1-benzothiophene-2-carboxamide]
EC50 [2, 16]: 250 nM
HAC % eff ([2]; N = 2): 127%
IC50 ([3]; Bos taurus): 40 nM
BAC % eff ([4]; bovine articular chondrocytes): (94%)
EC50 [4, 17]: 310 nM
EC50 [5]: 140 nM
RAC % eff [5]: 70%
EC50 [7]: 370 nM

N.N.N.N.N.N.N.N.N.N.N.N.N.N.[Cl-].[Cl-].[Cl-].[Cl-].[Cl-].[Cl-].[O-2].[O-2].[Ru+3].[Ru+3].[Ru+4] [Ruthenium Red, reference compound]
reversal of the effects of 4α-PDD on Ca2+ influx ([2]; human chondrocytes): reduce Ca^2+ influx down to baseline levels
reversal of the effects of 4α-PDD on Ca2+ influx ([4]; bovine chondrocytes): reduce Ca^2+ influx down to baseline levels
reversal of the effects of 4α-PDD on Ca2+ influx ([5]; rat chondrocytes): reduce Ca^2+ influx down to baseline levels
block of the response to 4α-PDD [14]: blocked

COc1cc(CNC(=O)CCCC/C=C/C(C)C)ccc1O [capsaicin, reference compound]
Ca2+ influx ([2]; human chondrocytes): no change in Ca^2+ influx
pEC50 empty vector [9]: IA
pEC50 wild type [10]: IA
Ca2+ influx ([4]; bovine chondrocytes): no change in Ca^2+ influx
Ca2+ influx ([5]; rat chondrocytes): no change in Ca^2+ influx
pEC50 TRPVR4 [12]: IA

C=C(C)[C@]12C[C@@H](C)[C@@]34O[C@](Cc5ccccc5)(O[C@@H]1[C@@H]3C=C(COC(=O)Cc1ccc(O)c(OC)c1)C[C@]1(O)C(=O)C(C)=C[C@@H]41)O2 [RTX]
pEC50 empty vector [9]: IA
pEC50 wild type [10]: IA
pEC50 TRPVR1 [11]: 8.93 ± 0.20
pEC50 TRPVR4 [12]: IA
